Consider two compounds from patent US9681647B2, “Mammal with an orthotopic tumor capable of metastasis, a method of making and a method of using” (Cornell University, priority 2012, dated 2017).

Data set [1] relates to early stage CCIC colon/intestine and ex-GI xenograft tumors (CCR9/CCL25 axis). Briefly: CCIC xenograft tumor formation after tail vein injection, CCR9/CCL25 blocked before or with cell injection (Table 2). Type of data set: in vivo, NOD/SCID mice. From the text:
CCR9 constitutive and inducible knockdown; Snail or CD26 knockdown in CCIC and NOTCH reporter CCIC. The lentiviral vector pEco-CMV-H1-shRNA-GFP encoding a shRNA hairpin sequence (CCR9: 5′-CTTGTACTGGC[…] ID NO:14; Snail: 5′-GAGCTGCAGG[…] ID NO:15; CD26: 5′-CATTCCTACAC[…] ID NO:16) was used for CCR9, Snail or CD26 expression knockdown and the lentiviral vectors pEco-CMV-H1-GFP (GenTarget Inc, San Diego, Calif.) and pEco-CMV-H1-scrambled-shRNA-GFP served as controls. To generate the lentiviral vectors, the above plasmids were transfected into HEK293T cells with the Genetargetlentivirus packaging mix (GenTarget Inc, San Diego, Calif.) according to the manufacturer's protocol. For CCR9 tetracycline inducible knockdown, the same shRNA hairpin sequence against CCR9 gene was inserted into pLenti-H1-shRNA-RSV (GFP-Puro) vector (GenTarget Inc, San Diego, Calif.) and packaged into lentivirus particles, which were used together with another TetR expression lentivirus (RFP-Bsd)(GenTarget Inc, San Diego, Calif.) to infect CCICs. After antibiotic selection and GFP/RFP dual FACS purification, the CCR9 shRNA knockdown can be induced by 1 ug/ml (in vitro) or 1 mg/ml (in vivo) doxycycline. NOTCH signaling reporter CCIC was generated by infecting CCIC with pCignalLenti RBP-Jk Reporter (GFP) ready lentivirus (SABiosciences, Inc.). After infecting CCIC lines with these lentiviral vectors, stable knockdown clones were obtained through antibiotic selection of blasticidin (Invitrogen, Carlsbad, Calif.). The efficiency of the CCR9, SNAIL or CD26 knockdown in CCIC was verified by Western Blotting and efficiency of NOTCH signaling reporter was tested by 2 μg/ml Jagged-1 (AnaSpec) treatment following by GFP-FACS sorting.
CCIC xenograft tumor formation in colon/intestine and other organs. 0.5-1×10^6CCIC or common CRC cells were injected into 6-8 weeks old non-obese diabetic/severe combined immunodeficient (NOD/SCID) mice (Jackson Laboratory, Bar Harbor, Me.) by tail vein injection. Tumor incidence was monitored 2-3× weekly. When mice became moribund, they were sacrificed immediately, necropsy performed and tumors harvested using a dissecting microscope. For ex vivo GFP imaging of tumor tissues, lentiviral infection by the pEco-CMV-GFP vector was used to generate CCIC lines that stably express GFP and maintained in puromycin selection. 10^6 of these fluorescent CCIC were systemically injected as described above. Intestinal tissues harvested at the time of sacrifice were analyzed for GFP expression with Cri Maestro Imaging Systems (Cambridge Research & Instrumentation Inc, Woburn, Mass.).
For the CCR9 study, native CCICs, CCICs with CCR9, Snail (SNAL1) or CD26 knockdown (or commonly used CRC cell lines such as HCT116, etc. as indicated), CCR9+ CCIC with CCR9 inducible knockdown were intravenously inoculated into the 6-8 weeks old NOD/SCID mice by tail vein. Mice that became moribund were sacrificed immediately, whereas the rest were closely monitored for 16 weeks before sacrifice. To test whether CCL25 antibody could inhibit the CCL25-CCR9 GI homing mechanism in vivo, a dose of 100 ug goat anti-mouse CCL25 neutralization antibody (R&D systems, Cat #AF-481-NA), was IP administrated to each mouse twice (the same dose and schedule as used in). As a negative control, a dose of 100 ug Goat IgG (R&D systems) was administered to each mouse in the control group. Then 1×10^6CCIC were injected into the mice 8 hours after or with the injection of the antibody. To test whether extra-GI metastasis is induced by CCR9/CCL25 signaling blockade, CCL25 neutralization antibody with the same dose was IP administrated to each mouse every three days or 1 mg/ml doxycycline in drinking water was given to mice every other days starting from the fourth week after CCIC inoculation until mice get moribund.

For data set [2], the system named is metastatic tumors made according to the present disclosure. Briefly: Oxaliplatin treatment of metastatic tumors versus primary GI tumors and subcutaneous xenografts. Type of data set: in vivo.
Setting [3] is: mice tail vein injected with early stage CCIC, blockade before/concurrent with injection or constitutive shRNA KD.

Marks after values point to notes of the source that are not given here.

Regarding “CCR9 KD: constitutive lentiviral shRNA against CCR9 (hairpin 5'-CTTGTACTGGCTCGTGTTCAT, SEQ ID NO:14) expressed in CCIC”, in data set [1] (mice systemically injected with CCIC, Kaplan-Meier, FIG. 6C), the “overall survival of mice vs. control” value is given as “significantly longer”. In addition, in data set [1] (setting [3]), the “Ex-GI Tumor Incidence (%)” value is reported as 85.7%, the “GI Tumor Incidence (%)” value is recorded as 14.3* %, the “Mean Ex-GI Tumors/Mouse” value was 105.0* and the “Mean GI Tumors/mouse” value is reported as 0.3*. Also, in data set [1] (mice tail vein injected with early stage CCIC, time until moribund, blockade before/concurrent with injection or constitutive shRNA KD), the “Mean Progression (weeks)” value was 13.0* weeks.

Consider `O=C1[O][Pt]2([NH][C@@H]3CCCC[C@H]3[NH]2)[O]C1=O` [oxaiplatin], for which the “chemoresistance of metastatic tumors relative to primary GI tumors and subcutaneous xenografts” value in data set [2] was “more chemoresistant”.
